# Read-outs that look alike come from different tables or passages of the source. Starred links: 1 amine or outer side, 2 acyl side, 3 side chain; linkers in the order of their positions; H or OH if unused. Positions of bridges follow the written chain, without caps; N, C: chain ends. Non-standard residues stand in square brackets, D forms with d. Residues, ends and D or L forms follow the SMILES beside them. *: point of attachment. hTyr(3S-OH,4S-OH,3'-OSO3H) = N[C@H](C(=O)O)[C@H](O)[C@@H](O)c1ccc(O)c(OS(=O)(=O)O)c1; Orn(4R-OH,5R-OH) = O=C([C@H](C[C@@H](O)[C@@H](O)N[*:3])N[*:1])[*:2]; Pro(3S-OH,4S-Me) = C[C@H]1CN[C@H](C(=O)O)[C@H]1O; X1 = CCCCCOc1ccc(-c2cc(-c3ccc(C(=O)*)cc3)no2)cc1; Gln(3R-OH) = NC(=O)C[C@@H](O)[C@H](N)C(=O)O; Hyp = O=C(O)[C@@H]1C[C@@H](O)CN1
# Experiments:
# [1] = test system: A. fumigatus strain AF293; assay: Murine model of pulmonary aspergillosis (Example 13), terminal lung burden; type: in vivo, Aspergillus fumigatus
# Experimental: A secondary endpoint for the study was terminal lung tissue burden. Immediately following confirmation of death, carcasses were frozen at −20° C. prior to tissue dissection and processing. The frozen carcasses were thawed at room temperature and the lungs removed and placed into pre-weighed bead-beating tubes containing 2 mL of PBS and subjected to mechanical disruption. Organ homogenates were diluted further in PBS and quantitatively cultured for A. fumigatus onto SABC and incubated at 30° C. for 24-48 hours. In addition, a 300 μL aliquot of the undiluted lung tissue homogenate was stored at −80° C. for possible optional assessment of burden by qPCR.
# A. fumigatus AF293 = assay: Pulmonary aspergillosis, prophylaxis, neutropenic ICR mice (Examples 17, 18), survival; type: in vivo, Aspergillus fumigatus; conditions: micafungin 5 mg/kg
# Experimental: Intranasal infection with A. fumigatus AF293 (10^5 CFU/mouse) on Day 0. Prophylaxis CD101 as a single dose (IP; 5, 10, 20 mg/kg) or posaconazole (PO; 2 and 10 mg/kg) 1 day prior to infection. Survival monitored for 10 days.
# Intranasal challenge with A. fumigatus AF293 (10^5 CFU/mouse) was initiated on Day 0 and prophylaxis with CD101 as a single dose (IP; 5, 10, 20 mg/kg) or posaconazole (PO; 2 and 10 mg/kg) was started 1 day prior to infection. Survival was monitored for 10 days.
# Candida auris strains = assay: Candida auris antifungal susceptibility testing (CLSI M27-A3), 38 strains; type: cell-based; conditions: for MIC: Candidozyma auris, read-out: MIC
compound,measurement,setting,value
"CCCCCOc1ccc(-c2cc(-c3ccc(C(=O)N[C@H]4C[C@@H](O)[C@@H](O)NC(=O)[C@@H]5[C@@H](O)[C@@H](C)CN5C(=O)[C@H]([C@H](O)CC(N)=O)NC(=O)[C@H]([C@H](O)[C@@H](O)c5ccc(O)c(OS(=O)(=O)O)c5)NC(=O)[C@@H]5C[C@@H](O)CN5C(=O)[C@H]([C@@H](C)O)NC4=O)cc3)no2)cc1 [Micafungin, micafungin] (X1-[Orn(4R-OH,5R-OH)]T[Hyp][hTyr(3S-OH,4S-OH,3'-OSO3H)][Gln(3R-OH)][Pro(3S-OH,4S-Me)]; lactam 1-C)",Group Geometric mean (lung burden),[1]; Micafungin 2 mg/kg IP Day 0,1.08 × 10^4 CFU/g
same,Log10 Group Geometric mean (lung burden),[1]; Micafungin 2 mg/kg IP Day 0,4.03 CFU/g
same,Log10 reduction from vehicle control,[1]; Micafungin 2 mg/kg IP Day 0,−0.26 CFU/g
same,Group Geometric mean (lung burden),[1]; Micafungin 2 mg/kg IP Day −1,4.34 x 10^4 CFU/g
same,Log10 Group Geometric mean (lung burden),[1]; Micafungin 2 mg/kg IP Day −1,4.64 CFU/g
same,Log10 reduction from vehicle control,[1]; Micafungin 2 mg/kg IP Day −1,−0.86 CFU/g
same,survival,A. fumigatus AF293,no survivors
same,number of resistant isolates,Candida auris strains,4
same,MIC,"Candida auris strains; 24 h, strain 1 VPCI 669/P/12, 24 h",0.125 µg/mL
same,MIC,"Candida auris strains; 24 h, strain 2 VCPI 671/P/12, 24 h",0.125 µg/mL
same,MIC,"Candida auris strains; 24 h, strain 3 VCPI 674/P/12, 24 h",0.06 µg/mL
same,MIC,"Candida auris strains; 24 h, strain 4 VCPI 683/P/12, 24 h",0.125 µg/mL
same,MIC,"Candida auris strains; 24 h, strain 5 VCPI 692/P/12, 24 h",0.125 µg/mL
same,MIC,"Candida auris strains; 24 h, strain 6 VCPI 712/P/12, 24 h",0.125 µg/mL
same,MIC,"Candida auris strains; 24 h, strain 7 VCPI 471/P/13, 24 h",0.25 µg/mL
same,MIC,"Candida auris strains; 24 h, strain 8 VCPI 475/P/13, 24 h",0.125 µg/mL
same,MIC,"Candida auris strains; 24 h, strain 9 VCPI 478/P/13, 24 h",0.125 µg/mL
same,MIC,"Candida auris strains; 24 h, strain 10 VCPI 479/P/13, 24 h",0.125 µg/mL
same,MIC,"Candida auris strains; 24 h, strain 11 VCPI 480/P/13, 24 h",0.125 µg/mL
same,MIC,"Candida auris strains; 24 h, strain 12 VCPI 482/P/13, 24 h",0.125 µg/mL
same,MIC,"Candida auris strains; 24 h, strain 13 VCPI 483/P/13, 24 h",0.125 µg/mL
same,MIC,"Candida auris strains; 24 h, strain 14 VCPI 1130/P/13, 24 h",0.125 µg/mL
same,MIC,"Candida auris strains; 24 h, strain 15 VCPI 1132/P/13, 24 h",0.125 µg/mL
same,MIC,"Candida auris strains; 24 h, strain 16 VCPI 1133/P/13, 24 h",16 µg/mL
same,MIC,"Candida auris strains; 24 h, strain 17 VCPI 105/P/14, 24 h",0.125 µg/mL
same,MIC,"Candida auris strains; 24 h, strain 18 VCPI 107/P/14, 24 h",0.06 µg/mL
same,MIC,"Candida auris strains; 24 h, strain 19 VCPI 510/P/14, 24 h",0.125 µg/mL
same,MIC,"Candida auris strains; 24 h, strain 20 VCPI 511/P/14, 24 h",0.125 µg/mL
same,MIC,"Candida auris strains; 24 h, strain 21 VCPI 512/P/14, 24 h",0.125 µg/mL
same,MIC,"Candida auris strains; 24 h, strain 22 VCPI 513/P/14, 24 h",0.125 µg/mL
same,MIC,"Candida auris strains; 24 h, strain 23 VCPI 514/P/14, 24 h",0.25 µg/mL
same,MIC,"Candida auris strains; 24 h, strain 24 VCPI 250/P/14, 24 h",0.125 µg/mL
same,MIC,"Candida auris strains; 24 h, strain 25 VCPI 265/P/14, 24 h",16 µg/mL
same,MIC,"Candida auris strains; 24 h, strain 26 VCPI 266/P/14, 24 h",0.125 µg/mL
same,MIC,"Candida auris strains; 24 h, strain 27 VCPI 462/P/14, 24 h",16 µg/mL
same,MIC,"Candida auris strains; 24 h, strain 28 VCPI 463/P/14, 24 h",0.125 µg/mL
same,MIC,"Candida auris strains; 24 h, strain 29 VCPI 467/P/14, 24 h",0.25 µg/mL
same,MIC,"Candida auris strains; 24 h, strain 31 VCPI 478/P/14, 24 h",0.5 µg/mL
same,MIC,"Candida auris strains; 24 h, strain 32 VCPI 518/P/14, 24 h",0.25 µg/mL
same,MIC,"Candida auris strains; 24 h, strain 33 VCPI 550/P/14, 24 h",0.25 µg/mL
same,MIC,"Candida auris strains; 24 h, strain 34 VCPI 714/P/14, 24 h",0.125 µg/mL
same,MIC,"Candida auris strains; 24 h, strain 35 VCPI 717/P/14, 24 h",0.125 µg/mL
same,MIC,"Candida auris strains; 24 h, strain 36 VCPI 1060/P/14, 24 h",0.25 µg/mL
same,MIC,"Candida auris strains; 24 h, strain 37 VCPI 74/P/15, 24 h",0.25 µg/mL
same,MIC,"Candida auris strains; 24 h, strain 38 VCPI 213/P/15, 24 h",0.25 µg/mL
same,MIC,Candida auris strains; 24 h,16 µg/mL
same,MIC,"Candida auris strains; 48 h, strain 1 VPCI 669/P/12, 48 h",0.25 µg/mL
same,MIC,"Candida auris strains; 48 h, strain 2 VCPI 671/P/12, 48 h",0.25 µg/mL
same,MIC,"Candida auris strains; 48 h, strain 3 VCPI 674/P/12, 48 h",0.125 µg/mL
same,MIC,"Candida auris strains; 48 h, strain 4 VCPI 683/P/12, 48 h",0.25 µg/mL
same,MIC,"Candida auris strains; 48 h, strain 5 VCPI 692/P/12, 48 h",0.25 µg/mL
same,MIC,"Candida auris strains; 48 h, strain 6 VCPI 712/P/12, 48 h",0.125 µg/mL
same,MIC,"Candida auris strains; 48 h, strain 7 VCPI 471/P/13, 48 h",0.25 µg/mL
same,MIC,"Candida auris strains; 48 h, strain 8 VCPI 475/P/13, 48 h",0.25 µg/mL
same,MIC,"Candida auris strains; 48 h, strain 9 VCPI 478/P/13, 48 h",0.125 µg/mL
same,MIC,"Candida auris strains; 48 h, strain 10 VCPI 479/P/13, 48 h",0.125 µg/mL
same,MIC,"Candida auris strains; 48 h, strain 11 VCPI 480/P/13, 48 h",0.125 µg/mL
same,MIC,"Candida auris strains; 48 h, strain 12 VCPI 482/P/13, 48 h",0.125 µg/mL
same,MIC,"Candida auris strains; 48 h, strain 13 VCPI 483/P/13, 48 h",0.125 µg/mL
same,MIC,"Candida auris strains; 48 h, strain 14 VCPI 1130/P/13, 48 h",0.125 µg/mL
same,MIC,"Candida auris strains; 48 h, strain 15 VCPI 1132/P/13, 48 h",0.125 µg/mL
same,MIC,"Candida auris strains; 48 h, strain 16 VCPI 1133/P/13, 48 h",> 16 µg/mL
same,MIC,"Candida auris strains; 48 h, strain 17 VCPI 105/P/14, 48 h",0.125 µg/mL
same,MIC,"Candida auris strains; 48 h, strain 18 VCPI 107/P/14, 48 h",0.06 µg/mL
same,MIC,"Candida auris strains; 48 h, strain 19 VCPI 510/P/14, 48 h",0.125 µg/mL
same,MIC,"Candida auris strains; 48 h, strain 20 VCPI 511/P/14, 48 h",0.125 µg/mL
same,MIC,"Candida auris strains; 48 h, strain 21 VCPI 512/P/14, 48 h",0.125 µg/mL
same,MIC,"Candida auris strains; 48 h, strain 22 VCPI 513/P/14, 48 h",0.25 µg/mL
same,MIC,"Candida auris strains; 48 h, strain 23 VCPI 514/P/14, 48 h",0.25 µg/mL
same,MIC,"Candida auris strains; 48 h, strain 24 VCPI 250/P/14, 48 h",0.125 µg/mL
same,MIC,"Candida auris strains; 48 h, strain 25 VCPI 265/P/14, 48 h",> 16 µg/mL
same,MIC,"Candida auris strains; 48 h, strain 26 VCPI 266/P/14, 48 h",0.125 µg/mL
same,MIC,"Candida auris strains; 48 h, strain 27 VCPI 462/P/14, 48 h",> 16 µg/mL
same,MIC,"Candida auris strains; 48 h, strain 28 VCPI 463/P/14, 48 h",0.125 µg/mL
same,MIC,"Candida auris strains; 48 h, strain 29 VCPI 467/P/14, 48 h",0.25 µg/mL
same,MIC,"Candida auris strains; 48 h, strain 31 VCPI 478/P/14, 48 h",0.5 µg/mL
same,MIC,"Candida auris strains; 48 h, strain 32 VCPI 518/P/14, 48 h",0.5 µg/mL
same,MIC,"Candida auris strains; 48 h, strain 33 VCPI 550/P/14, 48 h",0.5 µg/mL
same,MIC,"Candida auris strains; 48 h, strain 34 VCPI 714/P/14, 48 h",0.25 µg/mL
same,MIC,"Candida auris strains; 48 h, strain 35 VCPI 717/P/14, 48 h",0.125 µg/mL
same,MIC,"Candida auris strains; 48 h, strain 36 VCPI 1060/P/14, 48 h",0.25 µg/mL
same,MIC,"Candida auris strains; 48 h, strain 37 VCPI 74/P/15, 48 h",0.25 µg/mL
same,MIC,"Candida auris strains; 48 h, strain 38 VCPI 213/P/15, 48 h",0.25 µg/mL
same,MIC,Candida auris strains; 48 h,> 16 µg/mL

# Source: US20190307843A1, “SINGLE DOSE METHODS FOR PREVENTING AND TREATING FUNGAL INFECTIONS” (Cidara Therapeutics, Inc., priority 2016, published 2019)
